Legend:
ESD3 cells [1] = conditions: for cell morphology / CNPase expression over time / O1 expression over time: 2D; for cell morphology: Day 30, after 14 days of agonist exposure; for CNPase expression over time / O1 expression over time: agonist from Day 16 to Day 30
Text: In order to induce differentiation, cells were replated into gelatin coated 6 well plates (Biocoat, BD-Biosciences, Bedford, Mass.) at a density of 1×10^4 cells/cm^2. Cells were placed in DMEM/F12 (Invitrogen, Carlsbad, Calif.) media supplemented with 1% N-2 (Invitrogen—contains human transferrin, insulin, progesterone, putrescine and selenite), 100 U/mL penicillin and 100 U/mL streptomycin for 8 days. Every 2 days, media was aspirated and replaced with fresh media. On day 8, the cells were replated at a density of 0.5×10^4 cells/cm^2 into 24 well plates (Falcon, BD Biosciences, San Jose, Calif.) that were precoated with 0.1% Gelatin (Sigma-Aldrich) for 1 hour at 37° C. To aid in cell attachment, 10 ng/ml basic fibroblast growth factor (bFGF) was added. From day 8 to day 16, 1% Fetal Bovine Serum (FBS-Invitrogen) is added. Every 2 days, media was aspirated and replaced with fresh media.
On day 16, the cells are replated at a density of 0.5×10^4 cells/cm^2 into the same differentiation media supplemented with either 10 μM PPAR alpha (Sigma-Aldrich: WY-14643), 1 μM PPAR delta (Sigma-Aldrich: GW0742), or 10 μM PPAR gamma (Sigma-Aldrich: GW1929). All three agonists were dissolved in 0.05% DMSO (Sigma-Aldrich). Every 2 days, media was aspirated and replaced with fresh media with agonists. Cells were fixed for immunofluorescence analysis on Days 22, 26 and 30.
Cells were fixed before doing any immunofluorescence. This was done by first washing the cells 3 times in Tris Buffered Saline (TBS) followed by incubating the cells in 4% paraformaldehyde (Sigma-Aldrich) for 15 minutes at room temperature. The cells were again washed 3 times in TBS for 5 minutes at room temperature). In order to reduce non-specific binding of the antibodies to proteins on/within the cells, they were first blocked for 45 minutes at room temperature by incubating the cells with TBS, 10% goat serum (Invitrogen), 1% Bovine Serum Albumin (BSA-Sigma) and depending on if the protein in question is intracellular, 0.1% Triton X-100. The cells were then incubated overnight at 4° C. with the respective primary antibody in TBS, 1% goat serum and if the protein in question was intracellular, 0.1% Triton X-100. The antibodies used were: 5 μg/ml mouse anti-A2B5 IgM (Chemicon), 2 μg/ml mouse anti-O1 IgM (R&D Systems, Minneapolis, Minn.), 12.6 μg/ml mouse anti-CNPase (2′, 3′-cyclic nucleotide 3′-phosphodiesterase) IgG1 (Sigma) and 8 μg/ml rabbit anti-Myelin Basic Protein IgG (MBP—abcam, Cambridge, Mass.). To account for non-specific binding, isotype controls were used for each antibody: for A2B5 and O1—mouse IgM (Chemicon), for CNPase—mouse IgG1 (BD Biosciences) and for MBP—rabbit IgG (Invitrogen). The cells were washed 3 times for 5 minutes in TBS and if the protein in question was intracellular, 0.1% […]. The cells were then incubated for 1 hour at room temperature with the respective secondary in TBS and if the protein in question is intracellular, 0.1% Triton X-100. The secondaries used were: for A2B5 and O1—Alexa Fluor 488 goat anti-mouse IgM (Invitrogen—1:500), CNPase—Alexa Fluor 488 goat anti-mouse IgG1 (Invitrogen—1:500) and MBP—Alexa Fluor 488 goat anti-rabbit IgG (Invitrogen—1:500). The cells were then washed 2 times in TBS for 5 minutes at room temperature. The cells were counterstained with Hoechst 33342 (Invitrogen) for 10 minutes at room temperature (1 μg/ml).
Fluorescent images were acquired using a computer interfaced inverted Olympus IX70 microscope. Specimens were excited using a 488 nm filter. Fluorescent intensity values were determined for each cell using Olympus Microsuite™ software. Experimental intensity values for each cell were calculated after subtracting the average intensity of the isotype control.

encapsulated ES cells [2] = assay: Three dimensional alginate poly-L-lysine encapsulated oligodendrocyte differentiation, immunofluorescence; type: cell-based, mouse; conditions: for MBP expression / CNPase expression / O1 expression: IMDM + RA 8 days then PPAR agonist; for CNPase expression: peak
Protocol: The alginate encapsulation process was done using the protocol setup by Maguire, T., et al., Biotechnol. Bioeng., 93(3):581-91(2006). Briefly, an alginate solution was generated by dissolving 2.2 g of alginate (Sigma-Aldrich, MW: 100,000-200,000 g/mol, GContent: 65%-70%) in 100 mL of Ca^2+ free DMEM, using a heated magnetic stir plate at a temperature of 45° C. The solution was then filtered using a 25-micron syringe filter (Fisher Brand, Pittsburgh, Pa.). A confluent monolayer of undifferentiated ES cells were removed following trypsin incubation, centrifuged for 10 min at 1,000 rpm, and resuspended in PBS. The cells were washed twice more with PBS, resuspended in 2 mL of their respective media (IMDM, IMDM+Retinoic Acid (RA) (1×10^−7M), DMEM/F12+N2) and both cell number and viability assessed using the method of trypan blue (Gibco) exclusion. To create the cell-alginate mixture, 1 mL of cell suspension with a density of 50×10^6 cells/mL was added to 9 mL of a 2.2% (w/v) alginate solution to yield a final cell density of 5×10^6 cells/mL and a final alginate concentration of 2.0% (w/v). This solution was transferred to a 10 mL syringe (BD Biosciences), which, in turn was connected to a syringe pump (KD Scientific, Holliston, Mass.). Alginate beads were generated using an electrostatic bead generator (Nisco, Zurich, Switzerland) at a flow rate of 40 mL/h, and an applied voltage of 6.5 kV, resulting in beads with a diameter of 500 μm. The beads were collected in a 200 mL bath of CaCl2 (100 mM) (Sigma-Aldrich), containing 145 mM NaCl (Sigma-Aldrich), and 10 mM MOPS (Sigma-Aldrich) and were left to polymerize for 10 minutes at room temperature. Beads were transferred to a tissue culture treated 1-25 flask (Falcon, BD Biosciences), following the polymerization step. The CaCl2 solution was removed using a 5 mL pipette, and the beads were washed with 5 mL of HEPES (Gibco). The HEPES was removed and the beads were re-suspended in 5 mL of poly-L-lysine (PLL) (Sigma-Aldrich, MW: 68,600 g/mol) (0.05% w/v) for 2 min. The PLL was then gently removed, replaced with HEPES to wash the beads and the beads were ultimately re-suspended in 5 mL of cell culture media. Media was changed every 4 days post-encapsulation. In all experimental conditions, monolayer culture configurations were used as controls.
Cells were fixed for immunofluorescence analysis on Days 8, 14, 18 and 22.
Cells were fixed before doing any immunofluorescence.
Specimens were excited using a 488 nm filter.

ESD3 cells [3] = assay: Oil Red O staining of monolayer ESD3 cells; type: cell-based, mouse; conditions: 2D, by Day 30
Protocol: After the cells were fixed using 4% paraformaldehyde, they were then washed twice with PBS and rinsed once with 60% isopropanol (Sigma) for 5 minutes. A 0.18% Oil Red O (Sigma) solution in diH2O was then added to the cells for 10 minutes (diluted down from a 0.3% stock solution of Oil Red O in 99% isopropanol and filtered through filter paper). The cells were then rinsed several times with PBS (30 second rinses) until all excess Oil Red O was removed. […] Images were taken using an Olympus CKX-41 microscope with an Olympus Magnafire Color Camera and Magnafire software v.2.1C.
Oil Red O is a fat-soluble dye used for the staining of neutral triglycerides and lipids and among other things is used to detect myelin and myelin degradation products (Boven, L. A., et al., Brain, 129(Pt 2):517-526 (2006); Zou, T., et al., J. Neuropathol. Exp. Neurol., 65(1):78-86 (2006)).

encapsulated ES cells [4] = assay: Intracapsular aggregate size of encapsulated ES cells; type: cell-based, mouse; conditions: in the presence of retinoic acid, entire differentiation period
Protocol: Bright field images were acquired using an Olympus IX70 microscope and an Olympus digital camera. For each microcapsule, 5 z-sectional images were taken at 50 μm intervals to avoid multiple quantification of the same aggregate, for a total depth of 250 μm. Image quantification was conducted using Olympus Microsuite imaging analysis software.

ES cell line D3 = assay: Cell number and viability of alginate-encapsulated ES cells (trypan blue after depolymerization); type: cell-based, mouse; conditions: 2.2% w/v alginate, 5×10^6 cells/mL, with RA
Protocol: All cell cultures were incubated in a humidified 37° C., 5% CO2 environment. The ES cell line D3 (ATCC, Manassas, Va.) was maintained in an undifferentiated state in T-75 gelatin-coated flasks (Biocoat, BD-Biosciences, Bedford, Mass.) in Knockout Dulbecco's modified Eagles medium (Gibco, Grand Island, N.Y.) containing 15% knockout serum (Gibco), 4 mM L-glutamine (Gibco), 100 U/ml penicillin (Gibco), 100 U/ml streptomycin (Gibco), 10 mg/ml gentamicin (Gibco), 1,000 U/ml ESGRO™ (Chemicon, Temecula, Calif.) and 0.1 mM 2-mercaptoethanol (Sigma-Aldrich, St. Louis, Mo.). Media was changed every two days until plates were confluent. ES cultures were split and passaged every 6 days. Following media aspiration, cells were washed with 10 mL of phosphate buffered solution (PBS) (Gibco), detached using 3 mL of trypsin EDTA (Gibco) for 3 minutes, and subsequently 12 mL of Knockout DMEM was added. Cells were then replated in gelatin-coated T-75 flasks at a density of 1 million cells/mL and only passages 10 through 25 were used in the experiments. In order to induce differentiation, cells were cultured in Iscove's modified Dulbecco's medium (Gibco) containing 20% fetal bovine serum (Gibco), 4 mM L-glutamine (Gibco), 100 U/ml penicillin (Gibco), 100 U/ml streptomycin (Gibco), 10 mg/ml gentamicin (Gibco) in the presence or absence of 10^−7M trans-retinoic acid (Sigma-Aldrich). […]

encapsulated ES cells [5] = assay: Three dimensional alginate poly-L-lysine encapsulated oligodendrocyte differentiation, immunofluorescence; type: cell-based, mouse; conditions: 3D encapsulated, IMDM with Retinoic Acid, Day 12
encapsulated ES cells [6] = assay: Intracapsular immunofluorescence of neural lineage markers and albumin in encapsulated ES cells; type: cell-based, mouse; conditions: 2.2% alginate, 10^-7 M retinoic acid
Protocol: Alginate solution was prepared by dissolving 2.2 g of alginic acid sodium salt (MW: 100,000-200,000 g/mol, G Content: 65%-70%, Sigma-Aldrich) in 100 mL of Ca^2+ free DMEM (Gibco), using a heated magnetic stir plate at a temperature of 65° C. The solution was then filtered using a 45 μm syringe filter (Fisher Scientific, Pittsburgh, Pa.). To create the cell-alginate mixture, 1 mL aliquot of cell suspension with a seeding density of 5×10^7 cells/mL was added to 9 mL of either 1.2%, 1.7%, 2.2% or 2.5% (w/v) alginate solution to yield a final cell seeding density of 5×10^6 cells/mL. This solution was transferred to a 10 mL syringe, and was connected to a syringe pump (KD Scientific, MA). Alginate beads were generated using an electrostatic bead generator (Nisco, Zurich, Switzerland) at a flow rate of 40 mL/h, and an applied voltage of 6.4 kV. The beads were extruded into a 200 mL bath of CaCl2 (100 mM), containing 145 mM NaCl, and 10 mM MOPS (all from Sigma-Aldrich) and were left to polymerize for 10 min at room temperature (Maguire, T., et al., Biotechnol. Bioeng., 93(3):581-591 (2006)). Beads were then transferred to a tissue culture treated T-25 flask. The CaCl2 solution was removed using a 5 mL pipette, and the beads were washed with 5 mL of HEPES (Gibco). The HEPES was removed and the beads were resuspended in 5 mL of poly-L-lysine (PLL) (Sigma-Aldrich, MW 68,600 g/mol) (0.05% w/v) for 2 min. The PLL was then gently removed, replaced with HEPES to wash the beads and the beads were ultimately resuspended into 5 mL of IMDM medium (Invitrogen, Carlsbad, Calif.) media with and without 10^−7M trans-retinoic acid (Bain, G., et al., Dev. Biol., 168(2):342-357 (1995)). Media was changed at days 4, 8, 12, 16 and 20 post-encapsulation.
To assess the effect of RA on lineage commitment within the alginate microenvironment, individual cells were examined within the encapsulated population using indirect immunofluorescence analysis with a panel of neural lineage specific antibodies, including neurofilament 160 kD (neuronal marker), O1 (oligodendrocyte marker) and GFAP (astrocyte marker). Specific antibody binding was assessed relative to a non-specific immunoglobulin control.
After assessing the neural specific markers, the inventors also investigated the effects of different alginate concentrations, e.g., 1.2%, 1.7% and 2.5%, on neural differentiation in the alginate encapsulation microenvironment.
Encapsulated cells were washed with PBS (Gibco) and fixed on days 4, 8, 12, 16 and 20 with 4% paraformaldehyde to evaluate surface proteins or together with 0.25% Triton-X to evaluate intracellular protein expression. […]

Compound	cell morphology (ESD3 cells [1])	CNPase expression over time (ESD3 cells [1])	O1 expression over time (ESD3 cells [1])	MBP expression (encapsulated ES cells [2]; 3D, day 22)	CNPase expression (encapsulated ES cells [2]; 3D, day 22)	Oil Red O stain compared to control (ESD3 cells [3])	O1 expression (encapsulated ES cells [2]; 3D, day 22)	further results
Cc1cc(SCc2sc(-c3ccc(C(F)(F)F)c(F)c3)nc2C)ccc1OCC(=O)O [PPAR delta, GW0742]	majority of cells have extended processes with some having secondary branching	gradually increases over the 14 day period	drops sharply over the last 8 days	~80%	about 40%	significantly higher than control		differentiation at various concentrations (encapsulated ES cells [2]; 3D, 0.1 μM, 1 μM and 10 μM): No significant differences
Cc1cccc(Nc2cc(Cl)nc(SCC(=O)O)n2)c1C [PPAR alpha, WY-14643]	majority of cells have extended processes with some having secondary branching	increases over the initial 6 days and stabilizes for the remaining 8 days	drops consistently over the 14 day period		about 60%	minimal effect compared to control	~15%	MBP expression over time (encapsulated ES cells [2]; 3D, IMDM + RA 8 days then PPAR agonist for 14 days): stays pretty constant over the time period; O1 expression (encapsulated ES cells [2]; 3D, day 18): ~35%
CN(CCOc1ccc(C[C@H](Nc2ccccc2C(=O)c2ccccc2)C(=O)O)cc1)c1ccccn1 [PPAR gamma, GW1929]	two distinct morphologies	large increase over the initial 10 days thereafter stabilizing	gradually tapers over the 14 day period	about 45%	~53%	significantly higher than control	about 22%	cell death compared to all other cases (ESD3 cells [1]): significant increase in cell death; O1 expression (encapsulated ES cells [2]; 3D, day 14): about 42%; MBP expression (encapsulated ES cells [2]; 3D, day 18): about 74%
CC1=C(/C=C/C(C)=C/C=C/C(C)=C/C(=O)O)C(C)(C)CCC1 [retinoic acid, trans-retinoic acid]								size of individual cells (encapsulated ES cells [4]): approximately 13 μm; A2B5 expression (highest, as stated in text) (encapsulated ES cells [2]; 3D encapsulated, exposure to RA for 16 days): 44%; final density relative to the initial seeding density (ES cell line D3; 20-day culture): 2.5 times; Cell viability (ES cell line D3; throughout the culture period): greater than 95%; CNPase expression (encapsulated ES cells [5]): 32%; O1 expression (encapsulated ES cells [5]): 32%; encapsulated cells stained positively for intracellular albumin (encapsulated ES cells [6]): less than 5%; maximum percentage of encapsulated cells positively stained for GFAP (encapsulated ES cells [6]): 38.6%; maximum percentage of encapsulated cells positively stained for NF 150 kD (encapsulated ES cells [6]): 41.9%; maximum percentage of encapsulated cells positively stained for O1 (encapsulated ES cells [6]): 32.3%
